{"source": "patent US20260062414A1", "about": "“NOVEL COCRYSTALS OF METHYLXANTHINES, THEIR POLYMORPHS AND PROCESS THEREOF” (FERTIS INDIA PVT LTD, priority 2022, published 2026)", "test": "Dissolution studies of cocrystals", "settings": "for Release rate of active ingredient compared to pure form: dissolution study, cocrystal vs pure methylxanthine", "procedure": "In an embodiment, the dissolution study of the cocrystals of Methylxanthines with the coformers Pterostilbene and Resveratrol were evaluated.", "data": [{"smiles": "COc1cc(/C=C/c2ccc(O)cc2)cc(OC)c1.Cn1c(=O)c2c(ncn2C)n(C)c1=O", "note": "[CA:PB, Caffeine: Pterostilbene]", "values": [{"measurement": "Bioavailability compared to pure form", "value": "more bioavailable"}, {"measurement": "Release rate of active ingredient compared to pure form", "value": "slow-release rate"}]}, {"smiles": "COc1cc(/C=C/c2ccc(O)cc2)cc(OC)c1.COc1nc2c(c(=O)n1C)n(C)c(=O)n2C", "note": "[ML:PB, Methylliberine: Pterostilbene]", "values": [{"measurement": "Bioavailability compared to pure form", "value": "more bioavailable"}, {"measurement": "Solubility compared to pure form", "value": "lower solubility"}, {"measurement": "Release rate of active ingredient compared to pure form", "value": "slow-release rate"}]}, {"smiles": "COc1cc(/C=C/c2ccc(O)cc2)cc(OC)c1.Cn1c(=O)[nH]c2ncn(C)c2c1=O", "note": "[PX:PB, Paraxanthine: Pterostilbene (1:1) Cocrystal]", "values": [{"measurement": "Bioavailability compared to pure form", "value": "more bioavailable"}, {"measurement": "Solubility compared to pure form", "value": "lower solubility"}, {"measurement": "Release rate of active ingredient compared to pure form", "value": "slow-release rate"}]}, {"smiles": "COc1cc(/C=C/c2ccc(O)cc2)cc(OC)c1.Cn1cnc2c1c(=O)[nH]c(=O)n2C", "note": "[TB:PB, Theobromine: Pterostilbene (1:1) Cocrystal]", "values": [{"measurement": "Bioavailability compared to pure form", "value": "better bioavailability"}, {"measurement": "Solubility compared to pure form", "value": "improved solubility"}]}, {"smiles": "COc1cc(/C=C/c2ccc(O)cc2)cc(OC)c1.Cn1c(=O)c2c(n(C)c1=O)n(C)c(=O)n2C", "note": "[TC:PB, Theacrine: Pterostilbene]", "values": [{"measurement": "Bioavailability compared to pure form", "value": "more bioavailable"}, {"measurement": "Solubility compared to pure form", "value": "lower solubility"}, {"measurement": "Release rate of active ingredient compared to pure form", "value": "slow-release rate"}]}, {"smiles": "Cn1c(=O)c2[nH]cnc2n(C)c1=O.Oc1ccc(/C=C/c2cc(O)cc(O)c2)cc1", "note": "[TP:RS, Theophylline: Resveratrol (1:1) Cocrystal]", "values": [{"measurement": "Bioavailability compared to pure form", "value": "more bioavailable"}, {"measurement": "Solubility compared to pure form", "value": "lower solubility"}, {"measurement": "Release rate of active ingredient compared to pure form", "value": "slow-release rate"}]}]}
